Measurements published in US20130172345A1, “1-ACYL-4-(PHENOXY, BENZYLOXY, OR PHENYLAMINO)-1,2,3,4-TETRAHYDROQUINOLINE DERIVATIVES” (KOWA COMPANY, LTD., priority 2007, published 2013).
Counter-ions that a name gives are not always drawn.

Each compound was assayed on K562 cells, human proerythroblast cells (assay: Hemoglobin production in K562 cells (fluorescence of the porphyrin ring)). Settings: 144 h, test compound 6 μM, 3+3 days, non-stimulated state = 100%, read-out: production amount of hemoglobin, % of control (6 μM).
Assay type: cell-based
Description: K562 cells (obtained from ATCC), which are human proerythroblast cells, were seeded at a density of 1×10^5 cells/1 mL on a 24-well plate by using complete medium (RPMI-1640 medium comprising 10% bovine fetal serum). After adding the test compound having 1000× concentration (1 μL), the cells were incubated for three days in a CO2 incubator (37° C., 5% CO2). After exchanging the medium, the cells were further incubated for three days. Then, the cells were collected and counted. After adjusting them to have 3×10^5 cells, the amount of hemoglobin produced in the cells was determined by measuring fluorescence of the porphyrin ring. Specifically, the cells which had been collected by centrifugation were suspended in 2 M oxalic acid solution (500 μL) and boiled for 30 minutes under heating. After cooling the cells, the fluorescence intensity was measured by Fluorescence micro plate reader (Spectra MAX GeminiEM, manufactured by Molecular Devices Corporation) ([…]). When hemoglobin amount in non-stimulated state, i.e., without addition of any compound, was 100%, the production amount of hemoglobin induced by each compound was calculated (% of control).
Compound `CC(=O)N1c2ccccc2C(Oc2ccc([N+](=O)[O-])cc2)CC1C` (centres unmarked) [Compound 67, 1-acetyl-2-methyl-4-(4-nitrophenoxy)-1,2,3,4-tetrahydroquinoline] has an activity at 6 µM of 119%.
In the case of `CC(=O)N1c2ccc(N3CCOCC3)cc2C(Nc2ccc(CC(=O)O)cc2)CC1C` (centres unmarked) [Compound 89, 1-acetyl-4-[(4-carboxymethylphenyl)amino]-6-morpholino-2-methyl-1,2,3,4-tetrahydroquinoline], the activity at 6 µM is reported as 154%.
For `COc1ccc2c(c1)N(C(C)=O)C(C)CC2Nc1ccccc1` (centres unmarked) [Compound 48, 1-acetyl-2-methyl-7-methoxy-4-phenylamino-1,2,3,4-tetrahydroquinoline], the activity at 6 µM was 139%.
For `CC(=O)N1c2c(F)cccc2[C@H](Oc2ccccc2)C[C@@H]1C` (relative stereo) [Compound 33, cis-1-acetyl-8-fluoro-2-methyl-4-phenoxy-1,2,3,4-tetrahydroquinoline], the activity at 6 µM was 115%.
With `CC(=O)N1c2ccc(N3CCOCC3)cc2C(Nc2ccc(CC(N)=O)cc2)CC1C` (centres unmarked) [Compound 90, 1-acetyl-4-[(4-carbamoylmethylphenyl)amino]-2-methyl-6-morpholino-1,2,3,4-tetrahydroquinoline] the activity at 6 µM was 241%.
For `CC(=O)N1c2cc(F)ccc2[C@H](Oc2ccccc2)C[C@@H]1C` (relative stereo) [Compound 32, cis-1-acetyl-7-fluoro-2-methyl-4-phenoxy-1,2,3,4-tetrahydroquinoline], the activity at 6 µM was 145%.
In the case of `CC(=O)N1c2ccc(C(=O)N3CCOCC3)cc2C(Nc2ccc(Cl)cc2)CC1C` (centres unmarked) [Compound 93, 1-acetyl-4-[(4-chlorophenyl)amino]-6-[(1-morpholino)carbonyl]-2-methyl-1,2,3,4-tetrahydroquinoline.hydrochloride], the activity at 6 µM is reported as 245%.
Work on `CCN(CC)C(=O)N1CCN(c2ccc3c(c2)C(Nc2ccc(Cl)cc2)CC(C)N3C(C)=O)CC1` (centres unmarked) [Compound 87, 1-acetyl-4-[(4-chlorophenyl)amino]-6-[4-(N,N-diethylaminocarbonyl)piperazino]-2-methyl-1,2,3,4-tetrahydroquinoline] yielded an activity at 6 µM of 262%.
`CC(=O)N1c2ccc(C(N)=O)cc2[C@H](Nc2ccc(NS(C)(=O)=O)cc2)C[C@@H]1C` (relative stereo) [Compound 102, cis-1-acetyl-4-[(4-methanesulfonylaminophenyl)amino]-2-methyl-1,2,3,4-tetrahydroquinoline-6-carboxamide] gave an activity at 6 µM of 91%.
With `CC(=O)N1c2ccc(NCCO)cc2C(Nc2ccc(Cl)cc2)CC1C` (centres unmarked) [Compound 82, 1-acetyl-4-[(4-chlorophenyl)amino]-6-[(2-hydroxy)ethylamino]-2-methyl-1,2,3,4-tetrahydroquinoline] the activity at 6 µM was 325%.
Work on `COC(=O)c1cc(NC2CC(C)N(C(C)=O)c3ccccc32)ccc1O` (centres unmarked) [Compound 108, 1-acetyl-4-[(4-hydroxy-3-methoxycarbonylphenyl)amino]-2-methyl-1,2,3,4-tetrahydroquinoline.hydrochloride] yielded an activity at 6 µM of 399%.
Compound `CCOC(=O)Cc1ccc(NC2CC(C)N(C(C)=O)c3ccc(NS(C)(=O)=O)cc32)cc1` (centres unmarked) [Compound 99, 1-acetyl-6-methanesulfonylamino-2-methyl-4-[(4-ethoxycarbonylmethylphenyl)amino]-1,2,3,4-tetrahydroquinoline] has an activity at 6 µM of 69%.
Work on `CC(=O)N1c2ccc(N3CCN(C(=O)C(C)C)CC3)cc2C(Nc2ccc(Cl)cc2)CC1C` (centres unmarked) [Compound 84, 1-acetyl-4-[(4-chlorophenyl)amino]-6-[(4-isopropylcarbonyl)piperazino]-2-methyl-1,2,3,4-tetrahydroquinoline] yielded an activity at 6 µM of 286%.
With `CC(=O)N1CCN(c2ccc3c(c2)C(Nc2ccc(N4CCOCC4)cc2)CC(C)N3C(C)=O)CC1` (stereo not drawn) [Compound 94, cis-1-acetyl-6-[(4-acetyl)piperazino]-2-methyl-4-[(4-morpholinophenyl)amino]-1,2,3,4-tetrahydroquinoline.3 hydrochloride] the activity at 6 µM was 199%.
